The target in data set [1] is T1, Androgen receptor (Homo sapiens) (UniProt P10275).
T1 sequence (whole entry): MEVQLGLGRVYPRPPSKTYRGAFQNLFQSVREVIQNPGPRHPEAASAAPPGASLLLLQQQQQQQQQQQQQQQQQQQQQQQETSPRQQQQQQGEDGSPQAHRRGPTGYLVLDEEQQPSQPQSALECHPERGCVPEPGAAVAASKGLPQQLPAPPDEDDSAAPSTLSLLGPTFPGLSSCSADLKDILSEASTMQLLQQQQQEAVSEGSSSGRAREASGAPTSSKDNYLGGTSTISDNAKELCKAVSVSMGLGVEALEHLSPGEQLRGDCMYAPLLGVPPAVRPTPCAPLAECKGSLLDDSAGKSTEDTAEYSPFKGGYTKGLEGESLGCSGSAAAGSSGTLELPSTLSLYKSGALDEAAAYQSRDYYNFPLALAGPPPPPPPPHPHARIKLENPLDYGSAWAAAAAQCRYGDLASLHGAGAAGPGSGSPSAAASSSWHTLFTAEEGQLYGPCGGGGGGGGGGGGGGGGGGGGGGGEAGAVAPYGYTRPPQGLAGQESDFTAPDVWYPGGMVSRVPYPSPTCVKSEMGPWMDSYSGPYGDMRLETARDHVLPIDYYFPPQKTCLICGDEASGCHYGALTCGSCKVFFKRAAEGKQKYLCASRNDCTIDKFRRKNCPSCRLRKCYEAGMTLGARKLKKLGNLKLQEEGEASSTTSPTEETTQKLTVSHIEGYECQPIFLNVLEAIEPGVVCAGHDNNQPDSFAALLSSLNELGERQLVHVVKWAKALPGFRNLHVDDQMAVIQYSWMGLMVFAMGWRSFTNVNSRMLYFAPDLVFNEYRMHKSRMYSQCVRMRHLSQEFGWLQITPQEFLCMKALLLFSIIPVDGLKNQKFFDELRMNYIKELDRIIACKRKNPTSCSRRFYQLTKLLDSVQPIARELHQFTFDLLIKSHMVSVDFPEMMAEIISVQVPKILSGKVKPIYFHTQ
The data set can be described thus: (§1) Displacement of radiolabeled mibolerone from human androgen receptor by filter paper assay.

The subject of data set [2] is Mus musculus. Description: Reduction in atherosclerotic lesion size in LDL receptor knockout C57BL/6 mouse thoracic aorta at 15 mg/kg administered with Western diet after 8 weeks by oil Red-O staining. Format: functional. Also on record: scale not given: the % may be the effect or the level left.
Data set [3] in a line: AUC (0 to infinity) in C57 mouse at 1 mg/kg, iv and 10 mg/kg, po. The data set is classed as ADME, organism-based. Particulars: plasma.
The nature of data set [4]: Tmax in C57 mouse at 1 mg/kg, iv and 10 mg/kg, po. The data set is classed as ADME, organism-based. Particulars: in vivo.
Data set [5] concerns Mus musculus. The data set can be described thus: Upregulation of ABCA1 gene expression in LDL receptor knockout C57BL/6 mouse duodenum at 15 mg/kg administered with Western diet. Format: functional. Particulars: route oral.
A short description of data set [6]: Terminal half life in C57 mouse at 10 mg/kg, po. The data set is classed as ADME, organism-based. The arrangement: dose 10 mg/kg, route oral. Particulars: in vivo, read-out: beta t1/2 (converted).
The nature of data set [7]: Volume of distribution at steady state in C57 mouse at 1 mg/kg, iv and 10 mg/kg, po. Particulars: in vivo, read-out: Vdss. The data set is classed as ADME, organism-based.
The target in data set [8] is T2, Mineralocorticoid receptor (Homo sapiens, UniProt P08235).
T2 sequence (P08235 whole entry): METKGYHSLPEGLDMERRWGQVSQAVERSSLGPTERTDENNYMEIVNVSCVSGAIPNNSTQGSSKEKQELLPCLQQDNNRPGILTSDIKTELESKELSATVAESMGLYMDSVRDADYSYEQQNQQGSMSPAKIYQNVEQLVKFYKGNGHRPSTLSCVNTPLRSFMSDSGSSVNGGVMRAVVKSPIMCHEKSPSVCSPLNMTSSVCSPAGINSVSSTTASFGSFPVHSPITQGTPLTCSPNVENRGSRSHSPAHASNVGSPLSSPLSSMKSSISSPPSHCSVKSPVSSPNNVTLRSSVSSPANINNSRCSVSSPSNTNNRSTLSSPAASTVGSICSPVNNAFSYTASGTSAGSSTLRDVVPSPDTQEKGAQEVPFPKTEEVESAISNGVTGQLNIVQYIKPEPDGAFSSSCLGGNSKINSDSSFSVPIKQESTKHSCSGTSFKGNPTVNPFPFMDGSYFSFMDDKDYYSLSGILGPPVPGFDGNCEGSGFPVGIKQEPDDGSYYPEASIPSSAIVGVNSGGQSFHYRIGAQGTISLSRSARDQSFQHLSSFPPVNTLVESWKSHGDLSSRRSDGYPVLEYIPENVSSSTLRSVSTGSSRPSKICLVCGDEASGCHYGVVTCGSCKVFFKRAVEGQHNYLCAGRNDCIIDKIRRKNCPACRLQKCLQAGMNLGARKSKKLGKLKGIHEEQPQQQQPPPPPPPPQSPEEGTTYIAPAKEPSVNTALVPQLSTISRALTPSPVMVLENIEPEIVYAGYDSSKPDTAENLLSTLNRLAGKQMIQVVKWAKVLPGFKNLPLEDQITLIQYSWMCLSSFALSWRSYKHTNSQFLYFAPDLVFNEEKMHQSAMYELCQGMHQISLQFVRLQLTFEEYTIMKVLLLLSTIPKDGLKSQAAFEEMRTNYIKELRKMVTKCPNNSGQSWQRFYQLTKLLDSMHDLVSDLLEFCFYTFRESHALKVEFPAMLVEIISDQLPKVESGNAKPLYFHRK
The data set can be described thus: Displacement of radiolabeled aldosterone from human mineralocorticoid receptor by filter paper assay.

Data set [9] addresses T3, Androgen receptor (Homo sapiens, UniProt P10275).
T3 sequence (P10275 whole entry): T1 sequence (whole entry)
Described as §1.

As usually defined, the AUC(0-inf) is total exposure, with the tail of the curve extrapolated. Usually Tmax stands for the time at which the peak concentration occurs. One may read the IC50 as the concentration that gives 50% inhibition.

Structures are written as SMILES. Calls of active or inactive are those of the source. No cut-off for these calls is given here. Some results are limits rather than exact numbers.

For `Fc1ccc(-c2c3cccc(C(F)(F)F)c3nn2Cc2ccccc2F)cc1`, the outcome in [1] was inactive. This compound registered an Activity in data set [2] of 28%. In data set [3], the AUC(0-inf) is 3100 ng·h/mL. Moreover, the time of peak concentration (Tmax) in [4] is 0.5 h. In data set [5], the “fold change (FC)” value is listed as 2.3. Besides, the half-life in data set [6] was 5.8 h. The Vd in [7] turned out to be 30.3 L/kg. The IC50 in [8] was over 10 µM.
`Fc1ccc(-c2c3cccc(C(F)(F)F)c3nn2Cc2ccc(F)cc2Cl)cc1` [LXR-623] had a half-maximal inhibitory concentration (IC50) in [9] of 2.3 µM.

Values taken from ChEMBL document CHEMBL1152299, “Indazole-based liver X receptor (LXR) modulators with maintained atherosclerotic lesion reduction activity but diminished stimulation of hepatic triglyceride synthesis” (J Med Chem, 2008).
